ChEMBL document CHEMBL5543072, “Discovery of a novel lead characterized by a stilbene-extended scaffold against sepsis as soluble epoxide hydrolase inhibitors” (Eur J Med Chem, 2024)

Key:
[1] = Cmax in Sprague-Dawley rat at 5 mg/kg, iv measured after 24 hrs; type: ADME, organism-based; details: in vivo
Mus musculus [2] = assay: Anti-inflammatory activity in LPS-induced C57BL/6J mouse model of sepsis assessed as TNF-alpha in liver at 5 mg/kg, ip preadministered with compound for 24 hrs followed by LPS administration and measured after 3 hrs by ELISA (reference value: 298 pg/ml); type: functional; details: time 27 hrs
Mus musculus [3] = assay: Protection against LPS-induced sepsis in C57BL/6J mouse model assessed as survival rate at 0.05 mg/kg, iv measured after 72 hrs relative to control; type: functional
[4] = Cmax in Sprague-Dawley rat at 20 mg/kg, po measured after 24 hrs; type: ADME, organism-based; details: in vivo
[5] = Cytotoxicity against human HepG2 cells assessed as cell viability at 5 uM incubated for 48 hrs by CCK8 assay relative to control; type: toxicity, cell-based; details: read-out: Activity
Mus musculus [6] = assay: Protection against LPS-induced sepsis in C57BL/6J mouse model assessed as survival rate at 0.5 mg/kg, iv measured after 48 hrs relative to control; type: functional
[7] = Cytotoxicity in HEK293T cells assessed as cell viability at 50 uM incubated for 48 hrs by CCK8 assay relative to control; type: toxicity, cell-based, HEK-293T; details: human, read-out: Activity
Mus musculus [8] = assay: Protection against LPS-induced sepsis in C57BL/6J mouse model assessed as survival rate at 5 mg/kg, iv measured after 24 hrs relative to control; type: functional
Mus musculus [9] = assay: Protection against LPS-induced sepsis in C57BL/6J mouse model assessed as […] at 5 mg/kg, iv measured after 32 hrs relative to control; type: functional
[10] = AUC (0 to 24 hrs) in Sprague-Dawley rat at 20 mg/kg, po measured after 24 hrs; type: ADME, organism-based; details: in vivo
[11] = Half-life in Sprague-Dawley rat at 5 mg/kg, iv measured after 24 hrs; type: ADME, organism-based; details: in vivo
Mus musculus [12] = assay: Protection against LPS-induced sepsis in C57BL/6J mouse model assessed as […] at 5 mg/kg, iv measured after 24 hrs relative to control; type: functional
Mus musculus [13] = assay: Protection against LPS-induced sepsis in C57BL/6J mouse model assessed as survival rate at 30 mg/kg, iv measured upto 56 hrs relative to control; type: functional
[14] = Apparent volume of distribution in Sprague-Dawley rat at 5 mg/kg, iv measured after 24 hrs; type: ADME, organism-based; details: in vivo, read-out: Vz
in vivo [15] = details: C57BL/6J, mouse, other tissue, ip, 5 mg/kg
Description: Ratio of Cmax in C57BL/6J mouse liver to blood at 5 mg/kg, ip measured after 24 hrs by LC-MS/MS analysis

[16] = Cytotoxicity against human HepG2 cells assessed as cell viability at 50 uM incubated for 48 hrs by CCK8 assay relative to control; type: toxicity, cell-based; details: read-out: Activity
[17] = Cmax in C57BL/6J mouse blood at 5 mg/kg, ip measured after 24 hrs by LC-MS/MS analysis; type: ADME, organism-based
Mus musculus [18] = assay: Protection against LPS-induced sepsis in C57BL/6J mouse model assessed as survival rate at 0.05 mg/kg, iv measured after 24 hrs relative to control; type: functional
[19] = Oral bioavailability in Sprague-Dawley rat at 20 mg/kg measured after 24 hrs; type: ADME, organism-based; details: in vivo
[20] = Tmax in Sprague-Dawley rat at 5 mg/kg, iv measured after 24 hrs; type: ADME, organism-based; details: in vivo
Mus musculus [21] = assay: Protection against LPS-induced sepsis in C57BL/6J mouse model assessed as survival rate at 0.05 mg/kg, iv measured after 48 hrs relative to control; type: functional
Mus musculus [22] = assay: Protection against LPS-induced sepsis in C57BL/6J mouse model assessed as survival rate at 5 mg/kg, iv measured after 72 hrs relative to control; type: functional
[23] = AUC (0 to 24 hrs) in Sprague-Dawley rat at 5 mg/kg, iv measured after 24 hrs; type: ADME, organism-based; details: in vivo
Mus musculus [24] = assay: Anti-inflammatory activity in LPS-induced C57BL/6J mouse model of sepsis assessed as IL-6 in serum at 5 mg/kg, ip preadministered with compound for 24 hrs followed by LPS administration and measured after 3 hrs by ELISA (reference value: 17292 pg/ml); type: functional; details: time 27 hrs
Mus musculus [25] = assay: Anti-inflammatory activity in LPS-induced C57BL/6J mouse model of sepsis assessed as TNF-alpha in serum at 5 mg/kg, ip preadministered with compound for 24 hrs followed by LPS administration and measured after 3 hrs by ELISA (reference value: 282 pg/ml); type: functional; details: time 27 hrs
in vivo [26] = details: C57BL/6J, mouse, other tissue, ip, 5 mg/kg; remark: listed apart in the source
Description: Ratio of AUC (0 to 24 hrs)in C57BL/6J mouse liver to blood at 5 mg/kg, ip measured after 24 hrs by LC-MS/MS analysis

Mus musculus [27] = assay: Protection against LPS-induced sepsis in C57BL/6J mouse model assessed as survival rate at 30 mg/kg, iv measured after 48 hrs relative to control; type: functional
[28] = Apparent volume of distribution in Sprague-Dawley rat at 20 mg/kg, po measured after 24 hrs; type: ADME, organism-based; details: in vivo
[29] = Half-life in Sprague-Dawley rat at 20 mg/kg, po measured after 24 hrs; type: ADME, organism-based; details: in vivo
Mus musculus [30] = assay: Anti-inflammatory activity in LPS-induced C57BL/6J mouse model of sepsis assessed as IL-6 in liver at 5 mg/kg, ip preadministered with compound for 24 hrs followed by LPS administration and measured after 3 hrs by ELISA (reference value: 308 pg/ml); type: functional; details: time 27 hrs
[31] = Tmax in Sprague-Dawley rat at 20 mg/kg, po measured after 24 hrs; type: ADME, organism-based; details: in vivo
[32] = AUC (0 to 24 hrs) in C57BL/6J mouse liver at 5 mg/kg, ip measured after 24 hrs by LC-MS/MS analysis; type: ADME, organism-based; details: in vivo
[33] = Cytotoxicity in HEK293T cells assessed as cell viability at 5 uM incubated for 48 hrs by CCK8 assay relative to control; type: toxicity, cell-based, HEK-293T; details: human, read-out: Activity
[34] = biological target: T1, Bifunctional epoxide hydrolase 2 (Mus musculus, UniProt P34914)
T1 sequence (P34914 whole entry): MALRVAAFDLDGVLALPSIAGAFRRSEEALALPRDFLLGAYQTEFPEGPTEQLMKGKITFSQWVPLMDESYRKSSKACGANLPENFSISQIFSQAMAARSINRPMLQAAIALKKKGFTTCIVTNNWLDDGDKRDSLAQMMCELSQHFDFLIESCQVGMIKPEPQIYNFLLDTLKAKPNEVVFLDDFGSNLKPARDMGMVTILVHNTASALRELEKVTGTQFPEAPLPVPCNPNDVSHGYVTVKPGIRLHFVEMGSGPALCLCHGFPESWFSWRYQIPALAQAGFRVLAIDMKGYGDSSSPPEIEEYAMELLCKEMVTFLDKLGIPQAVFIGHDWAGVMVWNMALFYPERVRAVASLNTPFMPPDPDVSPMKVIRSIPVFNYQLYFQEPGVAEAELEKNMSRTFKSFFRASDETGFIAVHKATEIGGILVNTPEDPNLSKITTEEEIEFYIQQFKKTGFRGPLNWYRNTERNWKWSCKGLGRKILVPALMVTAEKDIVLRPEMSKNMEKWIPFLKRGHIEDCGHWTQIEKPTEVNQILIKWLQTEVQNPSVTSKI

Mus musculus [35] = assay: Protection against LPS-induced sepsis in C57BL/6J mouse model assessed as survival rate at 0.5 mg/kg, iv measured after 24 hrs relative to control; type: functional

## O=C(Cc1ccccn1)Nc1cccc(/C=C/c2ccc(NC(=O)NCC3CCOCC3)cc2)c1
[1]
  Cmax: 660 ng/mL
Mus musculus [2]
  Activity: 193 pg/mL
Mus musculus [3]
  survival at 0.05 mg/kg: 10%
[4]
  Cmax: 28.2 ng/mL
[5]
  viability at 48 h, 5 µM: 73.9%
Mus musculus [6]
  survival at 0.5 mg/kg: 40%
[7]
  viability at 48 h, 50 µM: 46.6%
Mus musculus [8]
  survival at 5 mg/kg: 60%
Mus musculus [9]
  Activity: 40%
[10]
  AUC: 48 ng·h/mL
[11]
  half-life: 24 min
Mus musculus [12]
  Activity: 40%
Mus musculus [13]
  survival at 30 mg/kg: > 50%
[14]
  Vd: 10.8 L/kg
In vivo [15]
  Kp at 24 h: 7.6
[16]
  viability at 48 h, 50 µM: 46.5%
[17]
  Cmax: 330 ng/mL
Mus musculus [18]
  survival at 0.05 mg/kg: 30%
[19]
  bioavailability: 5.1%
[20]
  Tmax: 4.8 min
Mus musculus [21]
  survival at 0.05 mg/kg: 10%
Mus musculus [22]
  survival at 5 mg/kg: 40%
[23]
  AUC(0-t) at 24 h: 266 ng·h/mL
Mus musculus [24]
  Activity: 15627 pg/mL
Mus musculus [25]
  Activity: 242 pg/mL
In vivo [26]
  Kp at 24 h: 175
Mus musculus [27]
  survival at 30 mg/kg: 50%
[28]
  Vz: 4132.531 L/kg
[29]
  half-life: 131 min
Mus musculus [30]
  Activity: 270 pg/mL
[31]
  Tmax: 30 min
[32]
  AUC: 21370 ng·h/g
[33]
  viability at 48 h, 5 µM: 82.9%
[34]
  IC50: 4.02 nM
Mus musculus [35]
  survival at 0.5 mg/kg: 50%
